Holding throughout (format): functional, organism-based
In test [1] the test system is Human alphaherpesvirus 3. The test is described as follows: In vitro antiviral activity was evaluated against VZV using viral plaque reduction assay; Value ranges from 2-4. Background: Plaque reduction counts the foci of infection that form in a cell layer.
The next test relates to Human alphaherpesvirus 2. The test is described as follows: In vitro antiviral activity was evaluated against HSV-2 using viral plaque reduction assay.
The test system of test [2] is Human alphaherpesvirus 1. The test is described as follows: In vitro antiviral activity was evaluated against HSV-1 using viral plaque reduction assay; Value ranges from 0.7-2.
Test [3] deals with Human betaherpesvirus 5. The test is described as follows: In vitro antiviral activity was evaluated against HCMV using viral plaque reduction assay; Value ranges from 4-40.
Test [4] deals with Human alphaherpesvirus 3. The test is described as follows: In vitro antiviral activity was evaluated against VZV using viral plaque reduction assay.
Test [5] concerns Human betaherpesvirus 5. Description: In vitro antiviral activity was evaluated against HCMV using viral plaque reduction assay.
Test [6] concerns Human alphaherpesvirus 1. Description: In vitro antiviral activity was evaluated against HSV-1 using viral plaque reduction assay.
Test [7] relates to Human betaherpesvirus 5. The test is described as follows: In vitro antiviral activity was evaluated against HCMV using viral plaque reduction assay; Value ranges from 20-40.
Test [8] deals with Human alphaherpesvirus 3. The test is described as follows: In vitro antiviral activity was evaluated against VZV using viral plaque reduction assay; Value ranges from 0.02-0.08.
In test [9] the test system is Human alphaherpesvirus 1. The test is described as follows: In vitro antiviral activity was evaluated against HSV-1 using viral plaque reduction assay; Value ranges from […].

Each structure is given as a SMILES string.

For the molecule `Nc1nc(O)c2ncn([C@@H]3C(F)[C@H](CO)C3CO)c2n1` (mixture of isomers; form 1), the IC50 was found to be 2000 nM in the test on Human alphaherpesvirus 3 [1], 700 nM with Human alphaherpesvirus 2, 700 nM in the test on Human alphaherpesvirus 1 [2] and 4000 nM in the test with Human betaherpesvirus 5 [3].
Turning to `Nc1nc(O)c2ncn([C@@H]3C(F)[C@H](CO)C3CO)c2n1` (mixture of isomers; form 2), the half-maximal inhibitory concentration (IC50) with Human alphaherpesvirus 3 [4], in the test with Human betaherpesvirus 5 [5], in the test with Human alphaherpesvirus 2 and with Human alphaherpesvirus 1 [6] was > 250000 nM throughout.
`Nc1nc2c(ncn2COCCO)c(=O)[nH]1` [ACYCLOVIR]: the 50% inhibitory concentration (IC50) in the test on Human alphaherpesvirus 2 (Human alphaherpesvirus 2) stood at 400 nM; in the test on Human alphaherpesvirus 1 [6], 400 nM; in the test with Human betaherpesvirus 5 [7], 20000 nM.
With `Nc1nc(O)c2ncn([C@@H]3C[C@H](CO)C3CO)c2n1` (mixture of isomers), the IC50 is 20 nM in the test with Human alphaherpesvirus 3 [8], 2000 nM with Human betaherpesvirus 5 [5], 40 nM in the test on Human alphaherpesvirus 2 (Human alphaherpesvirus 2) and 40 nM with Human alphaherpesvirus 1 [9].

What is called IC50 is the midpoint of a concentration-inhibition curve.

Source of the values: ChEMBL document CHEMBL1126501, “Differences in antiviral activities for isomers of a fluorinated cyclobutane nucleoside analog” (Bioorg Med Chem Lett, 1993).
